Source: patent publication US20250064762A1, “A SUBSTITUTED AROMATIC DICARBONIC ACID AMIDE AS AN INHIBITOR OF THE FERROPTOSIS SUPPRESSOR PROTEIN-1 (FSP1)” (JULIUS-MAXIMILIANS-UNIVERSITÄT WÜRZBURG, priority 2021, published 2025)
“Also recorded” adds a separate entry of the source.

What was measured:
[1] = test system: mouse embryonic fibroblasts (MEFs), Hepa 1-6 mouse hepatocellular carcinoma cells; assay: Concentration-dependent toxicity of FIN56 with CPBA or iFSP1 in mouse cells; assay type: cell-based; details: for sensitization to FIN56-induced ferroptosis in mouse cells: MEFs or Hepa 1-6 cells
Description: Cells were seeded onto 96-well plates (5,000 cells per well), and treated with serial dilutions of ferroptosis-inducing compounds (erastin, BSO, RSL3, FIN56) or cytotoxic drugs (staurosporine, nocodazole, tunicamycin, paclitaxel, etoposide, menadione, rotenone, FCCP, carboplatin) in the absence or presence of CPBA or iFSP1 (100 μM or 10 μM, respectively; unless stated otherwise) or the DMSO solvent control. Ferroptotic cell death was evaluated by incubating in the absence or presence of liproxstatin-1 (100 nM), ferrostatin-1 (200 nM), or deferoxamine (100 μM). Cell viability was assessed after 16 h using AquaBluer as an indicator of viable cells according to the manufacturer's recommendations (MultiTarget Pharmaceuticals, LLC). Fluorescence (excitation, 540 nm; emission, 590 nm) was analyzed on a Clariostar microplater reader.
In order to test concentration-dependent toxicity of treatment with FIN56 and either CPBA or iFSP1, we treated mouse embryonic fibroblasts (MEFs, see FIG. 21A), or Hepa 1-6 mouse hepatocellular carcinoma cells (see FIG. 21B) with DMSO solvent control, or with the indicated concentrations of CPBA or iFSP1. Ferroptotic cell death was assessed by incubation in the absence or presence of liproxstatin-1 (lip-1; A, 500 nM; B, 250 nM).

[2] = test system: HT1080 FSP1-KO cells reconstituted with either FSP1-WT or FSP1-G2A; assay: FIN56-induced ferroptosis in FSP1-KO cells reconstituted with FSP1-WT or FSP1-G2A; assay type: cell-based, human; details: iFSP1 10 μM, CPBA 100 μM
Description: The following HT1080 fibrosarcoma cell lines were generated using CRISPR/Cas9 technology, as previously described (Doll et al., 2019): HT1080 GPX4-knockout (KO) cells (maintained in the presence of 100 μM α-tocopherol); HT1080 GPX4 knockout cells overexpressing FSP1 (GPX4-KO/FSP1-OE); GPX4-KO cells overexpressing FSP1 and re-expressing GPX4 (GPX4-KO/FSP1-OE/GPX4-OE); HT1080 FSP1-WT or FSP1-KO cells; and HT1080 FSP1-KO cells reconstituted with either FSP1-WT or FSP1-G2A. LOX-IMVI (BRAF V600E heterozygous human melanoma cells) expressing either the Venus mock vector or FSP1-Venus (Doll et al., 2019) were grown in RPMI-1640 supplemented with 10% FCS, 2 mM L-glutamine and Pen/Strep.
In order to study the effect of FSP1 membrane targeting on iFSP1 or CPBA-dependent ferroptosis sensitization, HT1080 FSP1-KO cells reconstituted with either FSP1-WT or the membrane binding-incompetent myristoylation mutant FSP1-G2A were incubated with serial FIN56-dilutions in the absence or presence of the DMSO solvent control, iFSP1 (10 μM), or CPBA (100 μM) (see FIG. 18A).

[3] = target: T1, murine FSP1 (Mus musculus, UniProt Q8BUE4); assay: In vitro FSP1 oxidoreductase (NADH consumption) assay, murine FSP1; assay type: biochemical; details: resazurine or coQ1 as electron acceptor
T1 construct: His6 (N, cleaved yes); made in house; host or cells: Escherichia coli BL21 pG-Tf2
T1 sequence (Q8BUE4 1-373): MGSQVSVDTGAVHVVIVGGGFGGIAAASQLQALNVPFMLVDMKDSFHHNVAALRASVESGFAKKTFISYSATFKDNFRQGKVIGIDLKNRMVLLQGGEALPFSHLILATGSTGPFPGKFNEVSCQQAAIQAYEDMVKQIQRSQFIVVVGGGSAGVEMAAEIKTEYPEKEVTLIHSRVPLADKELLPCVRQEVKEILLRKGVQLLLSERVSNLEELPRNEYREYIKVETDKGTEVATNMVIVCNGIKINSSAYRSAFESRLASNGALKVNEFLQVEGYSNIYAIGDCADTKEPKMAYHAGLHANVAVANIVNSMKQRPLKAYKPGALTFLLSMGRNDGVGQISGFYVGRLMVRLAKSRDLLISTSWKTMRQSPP
Description: FSP1 activity assays were performed using recombinant, purified murine or human FSP1, NADH, and resazurine or coenzyme-Q1 (coQ1) as electron acceptor molecules. The following conditions were used: 200 μM resazurine were reduced with 750 nM mFSP1 or 150 nM hFSP1; 100 μM coQ1 was reduced with 400 nM mFSP1; and 137 μM coQ1 were reduced with 200 nM hFSP1. The consumption of NADH (500 μM) was measured at 340 nm in phosphate-buffered saline (80 mM Na3PO4, 300 mM NaCl; pH 7.0) at room temperature on a CLARIOstar microplate reader (BMG Labtech). Initial rates were determined, and data were fitted by linear regression using GraphPad Prism software, version 9.1.2.
In order to determine inhibition of FSP1 by CPBA, FSP1 activity was measured […] either CPBA or iFSP1 as a positive control. In vitro FSP1 oxidoreductase activity assays were performed using recombinant, purified murine or human FSP1, NADH, and resazurine or coenzyme-Q1 (coQ1) as electron acceptor molecules as described above (see FIG. 19).
In vitro FSP1 activity assays with human (see FIG. 22 C) or murine (see FIG. 22 D) FSP1 were performed as described above. Shown are NADH consumption assays using recombinant, purified human or mouse FSP1 (hFSP1, mFSP1) and resazurine or coenzyme-Q1 (CoQ1) as electron acceptor molecules.

| SMILES | concentrations that are non-specifically toxic to cells ([1]; 16 h) | sensitization to FIN56-induced ferroptosis in mouse cells [1] | ferroptosis sensitization depending on FSP1 membrane targeting [2] | inhibition of murine FSP1 activity [3] |
| --- | --- | --- | --- | --- |
| Cc1ccc(-c2c(C#N)c(N)n3c(nc4ccccc43)c2C#N)cc1 [iFSP1, reference compound] | > 10 µM | does not have an effect on mouse cell lines | sensitize FSP1-proficient cells to ferroptosis only if FSP1 can be targeted to membranes | has no effect on mFSP1; also recorded: much less active against murine FSP1 |
| O=C(Nc1ccccc1C(=O)O)c1ccc(Oc2ccc(C(=O)Nc3ccccc3C(=O)O)cc2)cc1 [CPBA, 2-[[4-[4-[(2-carboxyphenyl)carbamoyl]phenoxy]benzoyl]amino]-benzoic acid] |  | sensitizes MEFs or Hepa 1-6 cells to FIN56-induced ferroptosis | sensitize FSP1-proficient cells to ferroptosis only if FSP1 can be targeted to membranes | inhibits human and murine FSP1 activity; also recorded: much more effective inhibition of murine FSP1 by CPBA compared to iFSP1 |
